{
  "source": "patent US20110028566A1",
  "about": "“COMPOSITIONS AND PRODUCTS CONTAINING CYCLOALIPHATIC DIOL ANTIMICROBIAL AGENTS AND METHODS OF USING THE COMPOSITIONS AND PRODUCTS” (EASTMAN CHEMICAL COMPANY, priority 2009, published 2011)",
  "key": {"Bacillus subtilis": {"system": "Bacillus subtilis", "test": "Microbial challenge testing in BPW", "assay_type": "cell-based", "conditions": "for Grade code, B. subtilis, 3 Day / Grade code, B. subtilis, 14 Day / Grade code, B. subtilis, 30 Days: BPW, w/v % in label, average of replicates", "method": "(§1) The microorganisms used in challenge tests are given in Table 3, designated as either ATCC (American Type Culture Collection) or wild type. These wild type organisms were problematic organisms previously isolated from chemical products. In the description for each organism, the bacteria are indicated as either GN (Gram negative) or GP (Gram positive).\n(§2) All of the microorganisms were grown in Tryptose Soy Broth (TSB), DIFCO™ available from Becton, Dickinson and Company, containing 1% dextrose. Aspergillus niger and Candida albicans were incubated at 22° C.±2° C. for at least 96 hours. All bacteria were incubated at 35° C.±2° C. in a humidified incubator for at least 96 hours.\n(§3) The following procedure was followed to determine the amount of each challenge material (inoculum broth) required to produce a 10^8 cfu/mL challenge, which is equivalent to a final test-sample microbial concentration of 10^5 to 10^6 cfu (colony-forming units)/mL.\n(§4) Using a sterile serological pipette, 1 mL of the growth from each TSB culture was transferred into tubes containing 9 mL phosphate buffer (pH 7.2) and mixed thoroughly. This process was repeated to make serial 1:10 dilutions. Then 0.1 mL of each sample and dilution was inoculated onto agar plates to produce the equivalent of a further 1:10 dilution. C. albicans and A. niger were inoculated onto SDA and bacteria were inoculated onto Plate Count Agar (PCA), DIFCO™ available from Becton, Dickinson and Company. The 0.1 mL aliquots were evenly distributed on the plates using the spread-plate technique. The spread-plate technique is performed by spreading the aliquot over the entire plate surface using a sterile spreading rod while rotating the plate with a rotary auto-plater. After the inoculum was absorbed completely, each plate was inverted and incubated (fungi at 22° C.±2° C. and bacteria at 35° C.±2° C.).\n(§5) After incubation for at least 48 hours, colonies that had developed on the agar plates were counted and recorded with the corresponding dilution. If counting had to be delayed temporarily, plates were refrigerated, preferably no more than 24 hours, until they could be counted. The number of cfu/mL was determined by multiplying the count by the dilution factor for that particular plate.\n(§6) Turbidity in Nepholemetric Turbidity Units (NTU) was measured for each serial dilution using the HF-Micro 100 Model Turbidimeter. For each microorganism, the plate counts were compared to the turbidity readings.\n(§7) Control substrates (“broth alone”) were prepared for each microorganism separately in triplicate by adding 13.5 mL of BPW (pH 7.0) containing 1% (w/v) dextrose to each 20-mL glass tube; then adding 1.5 mL challenge material to produce a final concentration at time zero of 10^5 to 10^6 cfu/mL and a total volume of 15 mL.\n(§8) Test sample substrates were prepared containing each test material (1,4-CHDM, etc) or combination of test materials at the concentrations shown in Tables 5 and 6. Sample substrates were prepared in triplicate, except those substrates containing PE or CG which were prepared in duplicate. Substrates were prepared by adding BPW containing 1% (w/v) dextrose to each 20-mL glass tube, then adding the test material in the amount appropriate to achieve the desired weight/volume percent (g/100 mL) and to obtain a total volume of BPW with dextrose and test material of 13.5 mL. Then 1.5 mL challenge material was added to produce a final concentration at time zero of 10^5 to 10^6 cfu/mL of the respective organism and a total test sample substrate volume of 15 mL.\n(§9) After mixing, all challenged substrates were incubated at 35° C.±2° C. for 14 days and then at ambient room temperature."}, "Escherichia coli": {"system": "Escherichia coli", "test": "Microbial challenge testing in BPW", "assay_type": "cell-based", "conditions": "for Grade code, E. coli, 3 Day / Grade code, E. coli, 14 Day / Grade code, E. coli, 30 Day: BPW, w/v % in label, average of replicates", "method": "as §1, §2, §3, §4, §5, §6, §7, §8, §9"}, "[1]": {"conditions": "3 days incubation, listed as 0.5% AB"}, "[2]": {"conditions": "3 days incubation, listed as 1.25% AB"}, "[3]": {"conditions": "3 days incubation, listed as 2.5% AB"}, "[4]": {"conditions": "14 days incubation, listed as 0.5% AB"}, "[5]": {"conditions": "14 days incubation, listed as 1.25% AB"}, "[6]": {"conditions": "14 days incubation, listed as 2.5% AB"}, "[7]": {"conditions": "30 days incubation, listed as 0.5% AB"}, "[8]": {"conditions": "30 days incubation, listed as 1.25% AB"}, "[9]": {"conditions": "30 days incubation, listed as 2.5% AB"}},
  "data": [
    {"molecule": "OCC1CCC(CO)CC1", "note": "(stereo not drawn) [1,4-CHDM, 1,4-cyclohexanedimethanol]", "values": [
      {"measurement": "Grade code B. subtilis", "setting": "Bacillus subtilis; 0.5%, 3 days incubation", "result": "4 (1001 to 10,000 colonies (thus 10,000 cfu/mL to 100,000 cfu/mL))"},
      {"measurement": "Grade code B. subtilis", "setting": "Bacillus subtilis; 0.5%, 14 days incubation", "result": "4 (1001 to 10,000 colonies (thus 10,000 cfu/mL to 100,000 cfu/mL))"},
      {"measurement": "Grade code B. subtilis", "setting": "Bacillus subtilis; 0.5%, 30 days incubation", "result": "4 (1001 to 10,000 colonies (thus 10,000 cfu/mL to 100,000 cfu/mL))"},
      {"measurement": "Grade code B. subtilis", "setting": "Bacillus subtilis; 1.25%, 3 days incubation", "result": "4 (1001 to 10,000 colonies (thus 10,000 cfu/mL to 100,000 cfu/mL))"},
      {"measurement": "Grade code B. subtilis", "setting": "Bacillus subtilis; 1.25%, 14 days incubation", "result": "4 (1001 to 10,000 colonies (thus 10,000 cfu/mL to 100,000 cfu/mL))"},
      {"measurement": "Grade code B. subtilis", "setting": "Bacillus subtilis; 1.25%, 30 days incubation", "result": "4 (1001 to 10,000 colonies (thus 10,000 cfu/mL to 100,000 cfu/mL))"},
      {"measurement": "Grade code B. subtilis", "setting": "Bacillus subtilis; 2.5%, 3 days incubation", "result": "3 (101 to 1000 colonies (thus 1000 to 10,000 cfu/mL))"},
      {"measurement": "Grade code B. subtilis", "setting": "Bacillus subtilis; 2.5%, 14 days incubation", "result": "2 (52 to 100 colonies counted (thus 520 to 1000 cfu/mL))"},
      {"measurement": "Grade code B. subtilis", "setting": "Bacillus subtilis; 2.5%, 30 days incubation", "result": "1 (1 to 51 colonies counted (thus 10 to 510 cfu/mL))"},
      {"measurement": "Grade code, B. subtilis, 3 Day", "setting": "Bacillus subtilis; [1]", "result": "4 (1001 to 10,000 colonies (thus 10,000 cfu/mL to 100,000 cfu/mL))"},
      {"measurement": "Grade code, B. subtilis, 3 Day", "setting": "Bacillus subtilis; [2]", "result": "4 (1001 to 10,000 colonies (thus 10,000 cfu/mL to 100,000 cfu/mL))"},
      {"measurement": "Grade code, B. subtilis, 3 Day", "setting": "Bacillus subtilis; [3]", "result": "3 (101 to 1000 colonies (thus 1000 to 10,000 cfu/mL))"},
      {"measurement": "Grade code, B. subtilis, 14 Day", "setting": "Bacillus subtilis; [4]", "result": "4 (1001 to 10,000 colonies (thus 10,000 cfu/mL to 100,000 cfu/mL))"},
      {"measurement": "Grade code, B. subtilis, 14 Day", "setting": "Bacillus subtilis; [5]", "result": "4 (1001 to 10,000 colonies (thus 10,000 cfu/mL to 100,000 cfu/mL))"},
      {"measurement": "Grade code, B. subtilis, 14 Day", "setting": "Bacillus subtilis; [6]", "result": "2 (52 to 100 colonies counted (thus 520 to 1000 cfu/mL))"},
      {"measurement": "Grade code, B. subtilis, 30 Days", "setting": "Bacillus subtilis; [7]", "result": "4 (1001 to 10,000 colonies (thus 10,000 cfu/mL to 100,000 cfu/mL))"},
      {"measurement": "Grade code, B. subtilis, 30 Days", "setting": "Bacillus subtilis; [8]", "result": "4 (1001 to 10,000 colonies (thus 10,000 cfu/mL to 100,000 cfu/mL))"},
      {"measurement": "Grade code, B. subtilis, 30 Days", "setting": "Bacillus subtilis; [9]", "result": "1 (1 to 51 colonies counted (thus 10 to 510 cfu/mL))"},
      {"measurement": "Grade code E. coli", "setting": "Escherichia coli; 0.5%, 3 days incubation", "result": "5 (More than 10,000 colonies estimated (thus >100,000 cfu/mL))"},
      {"measurement": "Grade code E. coli", "setting": "Escherichia coli; 0.5%, 14 days incubation", "result": "4 (1001 to 10,000 colonies (thus 10,000 cfu/mL to 100,000 cfu/mL))"},
      {"measurement": "Grade code E. coli", "setting": "Escherichia coli; 0.5%, 30 days incubation", "result": "4 (1001 to 10,000 colonies (thus 10,000 cfu/mL to 100,000 cfu/mL))"},
      {"measurement": "Grade code E. coli", "setting": "Escherichia coli; 1.25%, 3 days incubation", "result": "4 (1001 to 10,000 colonies (thus 10,000 cfu/mL to 100,000 cfu/mL))"},
      {"measurement": "Grade code E. coli", "setting": "Escherichia coli; 1.25%, 14 days incubation", "result": "4 (1001 to 10,000 colonies (thus 10,000 cfu/mL to 100,000 cfu/mL))"},
      {"measurement": "Grade code E. coli", "setting": "Escherichia coli; 1.25%, 30 days incubation", "result": "4 (1001 to 10,000 colonies (thus 10,000 cfu/mL to 100,000 cfu/mL))"},
      {"measurement": "Grade code E. coli", "setting": "Escherichia coli; 2.5%, 3 days incubation", "result": "3 (101 to 1000 colonies (thus 1000 to 10,000 cfu/mL))"},
      {"measurement": "Grade code E. coli", "setting": "Escherichia coli; 2.5%, 14 days incubation", "result": "2 (52 to 100 colonies counted (thus 520 to 1000 cfu/mL))"},
      {"measurement": "Grade code E. coli", "setting": "Escherichia coli; 2.5%, 30 days incubation", "result": "0 (No growth detected or <1 colony (thus <10 cfu/mL))"},
      {"measurement": "Grade code, E. coli, 3 Day", "setting": "Escherichia coli; [1]", "result": "5 (More than 10,000 colonies estimated (thus >100,000 cfu/mL))"},
      {"measurement": "Grade code, E. coli, 3 Day", "setting": "Escherichia coli; [2]", "result": "4 (1001 to 10,000 colonies (thus 10,000 cfu/mL to 100,000 cfu/mL))"},
      {"measurement": "Grade code, E. coli, 3 Day", "setting": "Escherichia coli; [3]", "result": "3 (101 to 1000 colonies (thus 1000 to 10,000 cfu/mL))"},
      {"measurement": "Grade code, E. coli, 14 Day", "setting": "Escherichia coli; [4]", "result": "4 (1001 to 10,000 colonies (thus 10,000 cfu/mL to 100,000 cfu/mL))"},
      {"measurement": "Grade code, E. coli, 14 Day", "setting": "Escherichia coli; [5]", "result": "4 (1001 to 10,000 colonies (thus 10,000 cfu/mL to 100,000 cfu/mL))"},
      {"measurement": "Grade code, E. coli, 14 Day", "setting": "Escherichia coli; [6]", "result": "2 (52 to 100 colonies counted (thus 520 to 1000 cfu/mL))"},
      {"measurement": "Grade code, E. coli, 30 Day", "setting": "Escherichia coli; [7]", "result": "4 (1001 to 10,000 colonies (thus 10,000 cfu/mL to 100,000 cfu/mL))"},
      {"measurement": "Grade code, E. coli, 30 Day", "setting": "Escherichia coli; [8]", "result": "4 (1001 to 10,000 colonies (thus 10,000 cfu/mL to 100,000 cfu/mL))"},
      {"measurement": "Grade code, E. coli, 30 Day", "setting": "Escherichia coli; [9]", "result": "0 (No growth detected or <1 colony (thus <10 cfu/mL))"}
    ]}
  ]
}
